From patent publication US20240174618A1, “SUBSTITUTED (2-HETEROARYLOXYPHENYL)SULFONATES, SALTS THEREOF AND THEIR USE AS HERBICIDAL AGENTS” (Bayer Aktiengesellschaft, priority 2021, published 2024)

Tests used:
Type in all cases: in vivo
Stellaria media (STEME) = experiment: A. Herbicidal pre-emergence efficacy, STEME
Outline: (§1)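 Applied before emergence onto covering soil at rates of 1280 g/ha or less, using 600 L/ha spray water with 0.5% additive. Scoring: visual % efficacy after ~3 weeks, greenhouse.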

Veronica persica (VERPE) [1] = experiment: A. Herbicidal pre-emergence efficacy, VERPE; conditions: for Pre-emergence efficacy against VERPE: dosage 80 g/ha
Outline: as §1

Veronica persica (VERPE) [2] = experiment: B. Herbicidal post-emergence efficacy, VERPE
Outline: (§2)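 First, seeds were sown in sandy loam and grown 2 to 3 weeks under controlled greenhouse conditions. Next, foliage at the one-leaf stage received the formulated compound in water with 0.5% additive (600 L/ha, 1280 g/ha or less). Finally, damage was rated visually after about 3 weeks against untreated plants.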

Setaria viridis (SETVI) = experiment: C. Herbicidal pre-emergence efficacy, SETVI; conditions: scored after about 3 weeks
Outline: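 Pre-emergence test: formulated compounds sprayed as aqueous suspension or emulsion with 0.5% additive at 600 l/ha onto soil covering sown seeds, at rates corresponding to 320 g/ha or less. After about 3 weeks in greenhouse, efficacy scored visually as percent versus untreated controls (100% = plants dead).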

[3] = test system: Amaranthus retroflexus (AMARE); experiment: B. Herbicidal post-emergence efficacy, AMARE
Outline: as §2

[4] = test system: Pharbitis purpurea (PHBPU); experiment: E. Herbicidal post-emergence efficacy, PHBPU
Experimental: Seeds of monocotyledonous and dicotyledonous weeds and crop plants were placed in sandy loam in plastic or organic planting pots, covered with soil and cultivated in a greenhouse under controlled growth conditions. 2 to 3 weeks after sowing, the test plants were treated at the one-leaf stage. The compounds of the invention, formulated in the form of wettable powders (WP) or as emulsion concentrates (EC), were then sprayed onto the green parts of the plants as aqueous suspension or emulsion with addition of 0.5% additive at a water application rate of 600 l/ha (converted). After the test plants had been kept in the greenhouse under optimum growth conditions for about 3 weeks, the activity of the preparations was rated visually in comparison to untreated controls.
For example, • 100% efficacy=plants have died, • 0% action=like untreated control plants.
Tables E1a to E12b below show the effects of selected compounds of the general formula (I) according to table 1 on various harmful plants at an application rate corresponding to 320 g/ha or less, which were obtained by the experimental procedure mentioned above.

[5] = test system: Abutilon theophrasti (ABUTH); experiment: C. Herbicidal pre-emergence efficacy, ABUTH; conditions: scored after about 3 weeks
Description: (§3) Seeds of monocotyledonous and dicotyledonous weed plants and crop plants were placed in plastic or organic planting pots and covered with soil. The compounds of the invention, formulated in the form of wettable powders (WP) or as emulsion concentrates (EC), were then applied to the surface of the covering soil as aqueous suspension or emulsion with addition of 0.5% additive at a water application rate equivalent to 600 l/ha (converted). After the treatment, the pots were placed in a greenhouse and kept under good growth conditions for the test plants. After about 3 weeks, the efficacy of the preparations was scored visually in comparison with untreated controls as percentages. For example, • 100% efficacy=plants have died, • 0% efficacy=like untreated control plants.
(§4) Tables C1a to C14b below show the effects of selected compounds of the general formula (I) according to table 1 on various harmful plants at an application rate corresponding to 320 g/ha or less, which were obtained by the experimental procedure mentioned above.

[6] = test system: Digitaria sanguinalis (DIGSA); experiment: C. Herbicidal pre-emergence efficacy, DIGSA; conditions: scored after about 3 weeks
Description: as §3, §4

Structure (SMILES)	Pre-emergence efficacy against STEME (Stellaria media (STEME); dosage 80 g/ha) [%]	Pre-emergence efficacy against STEME (Stellaria media (STEME); dosage 320 g/ha) [%]	Pre-emergence efficacy against STEME (Stellaria media (STEME); dosage 1280 g/ha) [%]	Pre-emergence efficacy against VERPE in % (Veronica persica (VERPE) [1]; 320 g/ha) [%]	Pre-emergence efficacy against VERPE in % (Veronica persica (VERPE) [1]; 1280 g/ha) [%]	Pre-emergence efficacy against VERPE (Veronica persica (VERPE) [1]) [%]	Post-emergence efficacy against VERPE (Veronica persica (VERPE) [2]; 80 g/ha) [%]	Post-emergence efficacy against VERPE (Veronica persica (VERPE) [2]; 320 g/ha) [%]	Post-emergence efficacy against VERPE (Veronica persica (VERPE) [2]; 1280 g/ha) [%]	Pre-emergence efficacy against SETVI (Setaria viridis (SETVI); 80 g/ha) [%]	Pre-emergence efficacy against SETVI (Setaria viridis (SETVI); 320 g/ha) [%]	Post-emergence efficacy against AMARE ([3]; 80 g/ha) [%]	Post-emergence efficacy against AMARE ([3]; 320 g/ha) [%]	Post-emergence efficacy against AMARE ([3]; 1280 g/ha) [%]	Post-emergence efficacy against PHBPU in % ([4]; application rate 320 g/ha) [%]	Pre-emergence efficacy against ABUTH ([5]; 80 g/ha) [%]	Pre-emergence efficacy against ABUTH ([5]; 320 g/ha) [%]	Pre-emergence efficacy against DIGSA ([6]; 320 g/ha) [%]	Pre-emergence efficacy against DIGSA ([6]; 80 g/ha) [%]	Post-emergence efficacy against PHBPU in % ([4]; application rate 80 g/ha) [%]
O=S(=O)(CCCCl)Oc1ccccc1Oc1ncc(Cl)cn1 [Example I-2]	100	100	100	100	100	100	100	100	100	100	100	100	100	100	100	100	100	–	–	–
CCCS(=O)(=O)Oc1ccccc1Oc1ncc(Cl)cn1 [Example I-3]	100	100	100	100	100	100	90	100	100	100	100	90	100	100	90	100	100	–	–	–
O=S(=O)(CCl)Oc1ccccc1Oc1ncc(Cl)cn1 [Example I-9]	–	100	100	–	100	–	–	–	100	–	90	90	100	100	–	–	–	100	–	–
O=S(=O)(CCCCl)Oc1cccc(F)c1Oc1ncc(Cl)cn1 [Example I-13]	100	100	100	–	100	–	90	100	100	–	–	–	90	100	–	–	90	–	–	–
CCS(=O)(=O)Oc1ccccc1Oc1ncc(Cl)cn1 [Example I-16]	–	100	100	90	100	–	100	100	100	–	–	100	100	100	–	–	–	–	–	–
CCCCCS(=O)(=O)Oc1ccccc1Oc1ncc(Cl)cn1 [Example I-24]	–	100	100	–	–	–	90	100	100	–	80	90	100	100	80	–	–	100	90	–
Cc1cccc(Oc2ncc(Cl)cn2)c1OS(=O)(=O)CCCC(F)(F)F [Example I-28, 2-[(5-Chloropyrimidin-2-yl)oxy]-6-methylphenyl 4,4,4-trifluorobutane-1-sulfonate]	90	100	100	100	100	–	100	100	100	–	–	–	90	100	–	–	–	–	–	–
Cc1cccc(Oc2ncc(Cl)cn2)c1OS(=O)(=O)CCC(F)(F)F [Example I-29]	90	100	100	100	100	100	90	90	100	–	–	90	100	100	–	–	–	–	–	–
O=S(=O)(CCCC(F)(F)F)Oc1c(Br)cccc1Oc1ncc(Cl)cn1 [Example I-30]	100	100	100	100	100	–	90	100	100	–	–	100	100	100	–	–	–	–	–	–
O=S(=O)(CCC(F)(F)F)Oc1c(Br)cccc1Oc1ncc(Cl)cn1 [Example I-31]	90	100	100	100	100	–	90	90	100	–	–	100	100	100	–	–	–	–	–	–
C=CCS(=O)(=O)Oc1ccccc1Oc1ncc(Cl)cn1 [Example I-36]	–	–	90	–	100	–	–	90	100	–	–	–	90	100	–	–	90	100	–	–
Cc1cccc(Oc2ncc(F)cn2)c1OS(=O)(=O)CCC(F)(F)F [Example I-45]	90	100	100	100	100	–	–	–	–	100	100	–	–	–	–	100	100	100	100	–
COCCS(=O)(=O)Oc1c(F)cccc1Oc1ncc(Cl)cn1 [Example I-52]	90	90	100	100	100	–	–	–	–	–	100	–	90	90	–	80	100	100	80	–
O=S(=O)(CCC1CC1)Oc1c(F)cccc1Oc1ncc(Cl)cn1 [Example I-55]	–	100	100	100	100	–	90	90	90	80	90	90	90	90	100	–	–	100	100	90
O=S(=O)(CCC(F)=C(F)F)Oc1c(Cl)cccc1Oc1ncc(Cl)cn1 [Example I-73]	–	100	100	–	100	–	100	100	100	–	100	100	100	100	–	–	90	100	–	–
